Source: EPA's ToxValDB 9.5 (doi:10.2903/j.efsa.2020.6058)
≈ marks a conversion by molar mass, not a printed value.

Columns and labels:
Anas platyrhynchos = conditions: chronic/long-term
Apis mellifera = conditions: acute; oral; unspecified; mortality
Bibionidae = conditions: chronic/long-term; duration: 28 days; development
Hypoaspis aculeifer = conditions: chronic/long-term; reproduction
Mus musculus = conditions: acute; oral; M; mortality
Neomysis kadiakensis = conditions: chronic/long-term; duration: 28 days; development
Rattus norvegicus = conditions: clinical signs
Serinus canaria = conditions: acute; oral; unspecified; mortality
Tagia sp. = conditions: chronic/long-term; reproduction
Typhlodromus pyri = test: LR50; higher = less toxic; conditions: not reported; mortality

In the case of `CC1(C)C(C=C(Cl)Cl)[C@@H]1C(=O)O[C@@H](C#N)c1ccc(F)c(Oc2ccccc2)c1` (stereo partly drawn) [beta-Cyfluthrin], the NOAEL (Anas platyrhynchos) is reported as 2.6 mg/kg-day, the LD50 (Apis mellifera) is reported as 0.05 µg/piece and the NOEC (Bibionidae) is reported as 0.0057 µg/L. The NOEC (Hypoaspis aculeifer) was 0.97 mg/kg, the LD50 (Mus musculus) was 91 mg/kg-day and the NOEC (Neomysis kadiakensis) was 0.00041 µg/L. The LC50 (Oncorhynchus mykiss; acute, mortality) was 0.068 ng/mL (≈ 0.157 nM), the NOEC (Oncorhynchus mykiss; chronic/long-term, duration: 58 days, growth) was 0.0042 µg/L and the NOAEL (Rattus norvegicus; reproduction developmental) was 1.39 mg/kg-day. For the same molecule, the NOAEL (Rattus norvegicus; short-term, duration: 28 days) was 1 mg/kg-day, the NOAEL (Rattus norvegicus; subchronic, duration: 13 weeks, inhalation) was 0.02 mg/kg-day and the LD50 (Serinus canaria) was 170 mg/kg-day. For the same molecule, the NOEC (Tagia sp.) was 0.825 mg/kg and the LR50 (Typhlodromus pyri) was 0.0025 g/ha.
